In ChEMBL document CHEMBL5260802, “Discovery of Novel Allosteric HCV NS5B Inhibitors. 2. Lactam-Containing Thiophene Carboxylates” (ACS Med Chem Lett, 2017):

Key:
[1] = Half life in Cynomolgus monkey at 1 mg/kg,iv and measured after 72 hrs by LC/MS/MS analysis; type: ADME, organism-based, Macaca fascicularis; settings: in vivo
[2] = Microsomal stability in human liver microsomes assessed as parent compound remaining at 1 uM and measured after 30 mins in presence of NADPH by LC/MS/MS analysis; type: ADME, Microsome; settings: 0.5 h
[3] = Protein binding in rat plasma at 1 uM incubated for 6 hrs by LC-MS/MS based rapid equilibrium dialysis method; type: ADME, cell-free; settings: read-out: PPB (converted)
[4] = Clearance in Sinclair Lab dog at 1 mg/kg,iv and measured after 72 hrs by LC/MS/MS analysis; type: ADME, organism-based, Canis lupus familiaris; settings: in vivo
[5] = Unbound clearance in Sinclair Lab dog at 1 mg/kg,iv and measured after 72 hrs by LC/MS/MS analysis; type: ADME, organism-based, Canis lupus familiaris; settings: in vivo
[6] = Half life in Sprague-Dawley rat at 3 mg/kg,po and measured after 72 hrs by LC/MS/MS analysis; type: ADME, organism-based; settings: in vivo
[7] = Half life in Sinclair Lab dog at 1 mg/kg,iv and measured after 72 hrs by LC/MS/MS analysis; type: ADME, organism-based, Canis lupus familiaris; settings: in vivo
[8] = Unbound AUC (0 to infinity) in Sprague-Dawley rat at 1 mg/kg,iv and measured after 72 hrs by LC/MS/MS analysis; type: ADME, organism-based; settings: in vivo
[9] = Unbound AUC (0 to infinity) in Sinclair Lab dog at 1 mg/kg,iv and measured after 72 hrs by LC/MS/MS analysis; type: ADME, organism-based, Canis lupus familiaris; settings: in vivo
[10] = Drug uptake in human hepatocytes at 37 degree C for 15 mins by LC/MS/MS analysis; type: ADME, cell-based, Hepatocyte; settings: 0.25 h
[11] = AUC (0 to infinity) in Sprague-Dawley rat at 3 mg/kg,po and measured after 72 hrs by LC/MS/MS analysis; type: ADME, organism-based; set-up: time 72 hrs, dose 3 mg/kg, route po; settings: in vivo
[12] = Oral bioavailability in Sprague-Dawley rat at 3 mg/kg and measured after 72 hrs by LC/MS/MS analysis; type: ADME, organism-based; settings: in vivo
[13] = Half life in Sprague-Dawley rat at 1 mg/kg,iv and measured after 72 hrs by LC/MS/MS analysis; type: ADME, organism-based; settings: in vivo
[14] = Microsomal stability in rat liver microsomes assessed as parent compound remaining at 1 uM and measured after 30 mins in presence of NADPH by LC/MS/MS analysis; type: ADME, Microsome; settings: 0.5 h
[15] = Unbound AUC (0 to infinity) in Sprague-Dawley rat at 3 mg/kg,po and measured after 72 hrs by LC/MS/MS analysis; type: ADME, organism-based; settings: in vivo
[16] = system: Hepatitis C virus; assay: Antiviral activity against Hepatitis C virus subtype 1b infected in Huh-7 cells transfected with HCV subgenomic replicon for NS5B polymerase assessed as inhibition of viral replication measured upto 96 hrs by luciferase reporter gene assay; type: functional, organism-based, Hepacivirus hominis
[17] = Volume of distribution at steady state in Sprague-Dawley rat at 1 mg/kg,iv and measured after 72 hrs by LC/MS/MS analysis; type: ADME, organism-based; settings: in vivo, read-out: Vdss
[18] = Clearance in Cynomolgus monkey at 1 mg/kg,iv and measured after 72 hrs by LC/MS/MS analysis; type: ADME, organism-based, Macaca fascicularis; settings: in vivo
[19] = Unbound clearance in Sprague-Dawley rat at 1 mg/kg,iv and measured after 72 hrs by LC/MS/MS analysis; type: ADME, organism-based; settings: in vivo
[20] = biological target: T1, PXR (Homo sapiens, UniProt O75469); assay: Activation of human PXR expressed in human DPX2 co-expressing luciferase reporter gene assessed as maximum efficacy incubated for 24 hrs by luciferase assay relative to control; type: cell-based; settings: DPX2 cells expressing human PXR and luciferase reporter gene
T1 sequence (O75469 whole entry): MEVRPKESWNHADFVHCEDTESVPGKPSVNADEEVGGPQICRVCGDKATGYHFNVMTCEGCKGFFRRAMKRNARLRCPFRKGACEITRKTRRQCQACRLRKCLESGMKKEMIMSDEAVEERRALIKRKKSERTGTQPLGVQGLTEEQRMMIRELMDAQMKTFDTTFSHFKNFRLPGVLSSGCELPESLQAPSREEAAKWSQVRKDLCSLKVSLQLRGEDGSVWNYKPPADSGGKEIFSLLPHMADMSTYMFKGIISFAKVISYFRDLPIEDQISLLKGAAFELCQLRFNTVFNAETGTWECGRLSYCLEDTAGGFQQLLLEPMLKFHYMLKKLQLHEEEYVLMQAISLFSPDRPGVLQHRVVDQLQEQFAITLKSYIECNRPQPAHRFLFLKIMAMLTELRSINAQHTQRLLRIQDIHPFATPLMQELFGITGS

[21] = biological target: T2, Nuclear receptor subfamily 1 group I member 2 (Homo sapiens, UniProt O75469); assay: Activation of human PXR expressed in human DPX2 co-expressing luciferase reporter gene incubated for 24 hrs by luciferase assay; type: cell-based
T2 sequence (O75469 whole entry): T1 sequence (O75469 whole entry)

[22] = biological target: Cytochrome P450 2C9 (Homo sapiens, UniProt P11712); assay: Inhibition of CYP2C9 in human liver microsomes incubated for 10 mins in presence of NADPH by LC/MS/MS analysis; type: ADME, Microsome
Sequence of Cytochrome P450 2C9 (P11712 whole entry): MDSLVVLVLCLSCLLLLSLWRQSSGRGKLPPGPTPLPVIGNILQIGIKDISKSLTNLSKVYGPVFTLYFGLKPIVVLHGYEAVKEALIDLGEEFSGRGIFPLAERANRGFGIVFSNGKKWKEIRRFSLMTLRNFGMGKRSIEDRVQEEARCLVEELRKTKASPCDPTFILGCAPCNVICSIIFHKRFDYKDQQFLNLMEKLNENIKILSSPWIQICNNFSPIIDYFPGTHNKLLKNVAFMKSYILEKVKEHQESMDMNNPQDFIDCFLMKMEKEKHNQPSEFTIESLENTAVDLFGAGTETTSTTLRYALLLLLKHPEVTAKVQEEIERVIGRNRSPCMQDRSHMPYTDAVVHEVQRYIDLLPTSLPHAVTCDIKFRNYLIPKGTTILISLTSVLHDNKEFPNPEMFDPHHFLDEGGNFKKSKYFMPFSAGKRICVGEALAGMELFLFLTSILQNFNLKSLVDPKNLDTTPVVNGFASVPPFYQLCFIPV

[23] = Drug uptake in human hepatocytes at 4 degree C for 15 mins by LC/MS/MS analysis; type: ADME, cell-based, Hepatocyte; settings: 0.25 h
[24] = Drug excretion in bile-duct cannulated Sprague-Dawley rat assessed as bile elimination at 15 mg/kg,po and measured after 72 hrs by LC/MS/MS analysis; type: ADME, organism-based; settings: in vivo
[25] = AUC (0 to infinity) in Cynomolgus monkey at 1 mg/kg,iv and measured after 72 hrs by LC/MS/MS analysis; type: ADME, organism-based, Macaca fascicularis; set-up: dose 1 mg/kg, time 72 hrs, route iv; settings: in vivo
[26] = Cmax in Sprague-Dawley rat at 3 mg/kg,po and measured after 72 hrs by LC/MS/MS analysis; type: ADME, organism-based; set-up: time 72 hrs, dose 3 mg/kg, route po; settings: in vivo
[27] = Volume of distribution at steady state in Sinclair Lab dog at 1 mg/kg,iv and measured after 72 hrs by LC/MS/MS analysis; type: ADME, organism-based, Canis lupus familiaris; settings: in vivo, read-out: Vdss
[28] = Cytotoxicity against human Huh-7 cells transfected with HCV subgenomic replicon for NS5B polymerase assessed as reduction in cell viability; type: toxicity, cell-based
[29] = biological target: Cytochrome P450 2D6 (Homo sapiens, UniProt P10635); assay: Inhibition of CYP2D6 in human liver microsomes incubated for 10 mins in presence of NADPH by LC/MS/MS analysis; type: ADME, Microsome
Sequence of Cytochrome P450 2D6 (P10635 whole entry): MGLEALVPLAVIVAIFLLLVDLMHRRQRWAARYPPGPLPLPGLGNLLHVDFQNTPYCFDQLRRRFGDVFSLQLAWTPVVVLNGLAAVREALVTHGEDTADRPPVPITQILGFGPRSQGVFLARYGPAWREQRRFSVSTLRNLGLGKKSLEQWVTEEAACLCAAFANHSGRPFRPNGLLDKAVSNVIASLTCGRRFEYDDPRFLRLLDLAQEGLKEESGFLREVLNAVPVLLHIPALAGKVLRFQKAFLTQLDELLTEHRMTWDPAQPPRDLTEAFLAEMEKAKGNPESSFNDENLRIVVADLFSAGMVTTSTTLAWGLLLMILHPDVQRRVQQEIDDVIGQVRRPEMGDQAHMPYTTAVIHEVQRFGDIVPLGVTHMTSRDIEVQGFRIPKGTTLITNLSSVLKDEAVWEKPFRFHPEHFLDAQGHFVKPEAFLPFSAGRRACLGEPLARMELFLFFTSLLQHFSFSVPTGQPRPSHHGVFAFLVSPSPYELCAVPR

[30] = Unbound AUC (0 to infinity) in Cynomolgus monkey at 1 mg/kg,iv and measured after 72 hrs by LC/MS/MS analysis; type: ADME, organism-based, Macaca fascicularis; settings: in vivo
[31] = system: Hepatitis C virus; assay: Antiviral activity against Hepatitis C virus subtype 1b infected in Huh-7 cells transfected with HCV subgenomic replicon for NS5B polymerase assessed as inhibition of viral replication measured upto 96 hrs in presence of 40% of human serum by luciferase reporter gene assay; type: functional, organism-based, Hepacivirus hominis; settings: Huh-7, 96 h
[32] = Drug distribution in Sprague-Dawley rat plasma at 10 mg/kg,po and measured upto 24 hrs by LC/MS/MS analysis; type: ADME, organism-based; settings: in vivo
[33] = Clearance in Sprague-Dawley rat at 1 mg/kg,iv and measured after 72 hrs by LC/MS/MS analysis; type: ADME, organism-based; settings: in vivo
[34] = Drug distribution in Sprague-Dawley rat liver at 10 mg/kg,po and measured upto 24 hrs by LC/MS/MS analysis; type: ADME, organism-based; settings: in vivo
[35] = biological target: Cytochrome P450 3A4 (Homo sapiens, UniProt P08684); assay: Inhibition of CYP3A4 in human liver microsomes incubated for 10 mins in presence of NADPH by LC/MS/MS analysis; type: ADME, Microsome
Sequence of Cytochrome P450 3A4 (P08684 whole entry): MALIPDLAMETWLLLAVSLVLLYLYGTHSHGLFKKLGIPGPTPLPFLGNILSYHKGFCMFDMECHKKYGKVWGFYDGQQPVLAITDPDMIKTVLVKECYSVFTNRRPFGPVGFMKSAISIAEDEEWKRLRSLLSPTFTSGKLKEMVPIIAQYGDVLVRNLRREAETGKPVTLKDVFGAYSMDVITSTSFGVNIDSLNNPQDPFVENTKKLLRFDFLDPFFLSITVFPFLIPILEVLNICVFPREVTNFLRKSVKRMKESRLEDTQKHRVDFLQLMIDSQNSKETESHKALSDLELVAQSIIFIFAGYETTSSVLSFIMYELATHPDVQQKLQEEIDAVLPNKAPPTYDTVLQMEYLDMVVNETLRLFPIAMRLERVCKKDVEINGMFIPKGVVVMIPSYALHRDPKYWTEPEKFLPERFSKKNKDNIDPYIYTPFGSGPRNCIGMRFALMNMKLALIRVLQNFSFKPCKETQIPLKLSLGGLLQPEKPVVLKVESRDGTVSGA

[36] = AUC (0 to infinity) in Sprague-Dawley rat at 1 mg/kg,iv and measured after 72 hrs by LC/MS/MS analysis; type: ADME, organism-based; set-up: time 72 hrs, dose 1 mg/kg, route iv; settings: Sprague-Dawley, in vivo
[37] = Volume of distribution at steady state in Cynomolgus monkey at 1 mg/kg,iv and measured after 72 hrs by LC/MS/MS analysis; type: ADME, organism-based, Macaca fascicularis; settings: in vivo, read-out: Vdss
[38] = Unbound clearance in Cynomolgus monkey at 1 mg/kg,iv and measured after 72 hrs by LC/MS/MS analysis; type: ADME, organism-based, Macaca fascicularis; settings: in vivo
[39] = AUC (0 to infinity) in Sinclair Lab dog at 1 mg/kg,iv and measured after 72 hrs by LC/MS/MS analysis; type: ADME, organism-based, Canis lupus familiaris; set-up: time 72 hrs, dose 1 mg/kg, route iv; settings: in vivo

## CN1CCCC[C@H](N(c2cc(C#CC(C)(C)C)sc2C(=O)O)C(=O)[C@H]2CC[C@H](C)CC2)C1=O
[1]
  half-life: 5.44 h
[2]
  Stability: Stable
[3]
  fraction unbound at 6 h, 1 µM: 0.008
[4]
  clearance: 0.9 L/h/kg
[5]
  CL free: 128.4 L/h/kg
[6]
  half-life: 2.91 h
[7]
  half-life: 1.39 h
[8]
  fAUC: 0.0118 µg·h/mL
[9]
  fAUC: 0.0101 µg·h/mL
[10]
  Drug uptake: Active
[11]
  AUC(0-inf): 3.82 µg·h/mL
[12]
  bioavailability: 97%
[13]
  half-life: 2.12 h
[14]
  Stability: Stable
[15]
  fAUC: 0.0306 µg·h/mL
[16]; Huh-7, 96 h
  IC50: 0.004 µM
[16]; Huh-7, time <= 96 hrs
  IC90: 0.012 µM
[17]
  Vd: 1.95 L/kg
[18]
  clearance: 2.01 L/h/kg
[19]
  CL free: 120.6 L/h/kg
[20]
  Emax at 24 h: 10%
[21]
  EC50: > 30 µM
[22]
  IC50: > 30 µM
[23]
  Drug uptake: Active
[24]
  Drug excretion: Active
[25]
  AUC(0-inf): 0.443 µg·h/mL
[26]
  Cmax: 1.04 µg/mL
[27]
  Vd: 1.59 L/kg
[28]
  CC50: > 20 µM
[29]
  IC50: > 30 µM
[30]
  fAUC: 0.00443 µg·h/mL
[31]
  IC50: 0.023 µM
[32]
  Drug uptake: Active
[33]
  clearance: 0.966 L/h/kg
[34]
  Drug uptake: Active
[35]
  IC50: > 30 µM
[36]
  AUC(0-inf): 1.48 µg·h/mL
[37]
  Vd: 5.27 L/kg
[38]
  CL free: 201 L/h/kg
[39]
  AUC(0-inf): 1.45 µg·h/mL
